≈ marks a conversion by molar mass, not a printed value. Where “and” joins values, the source holds several entries; their conditions need not be identical. Equal values may be shown once.
What was measured:
[1] = Thorough QT (TQT) study: QTc, cardiac conduction and adverse events; conditions: Moxifloxacin 400 mg oral (control)
Protocol: A TQT study was also conducted. The TQT study was a double-blind, randomized, placebo-controlled, 4-period, single-dose, crossover design in 52 healthy male and female subjects.

[2] = test system: clinical isolates of T. vaginalis; test: Susceptibility testing, minimal lethal concentration (MLC), aerobic; type: cell-based, Trichomonas vaginalis; conditions: for MLC, mean (±SD) among all isolates / MLC, median: aerobic, 46-50 h
Protocol: Susceptibility testing was conducted with one hundred (100) clinical isolates of T. vaginalis.
Archived, de-identified, clinical isolates of T. vaginalis that were banked in liquid nitrogen were used for this study. The samples had been collected between July 2015 and June 2017, in accordance with institutional review board guidelines, and all patients had consented to the storage and use of their samples for subsequent testing. […] In brief, trichomonads were grown in Diamond's medium 1025 (containing trypticase soy broth, yeast extract, maltose, and calf serum) adjusted to pH 5.9 and supplemented with streptomycin at 1 g/liter and penicillin G at 100 U/ml. A hemocytometer was used to count the trichomonad population and to adjust it to a concentration of 66,666 cells/ml. Isolates were tested in microtiter plates under aerobic conditions. […] Plates were then incubated at 37° C. for 46 hours to 50 hours and read with a Zeiss Axiovert inverted microscope. The concentration of drug in the microplate wells in which no motile trichomonads were observed was reported as the MLC. […] Low-level resistance was defined as an aerobic MLC of 50 μg/ml to 100 μg/ml, moderate-level resistance as an aerobic MLC of 200 μg/ml, and high-level resistance as an aerobic MLC of >400 μg/ml. The MLCs for metronidazole and secnidazole were analyzed using the Wilcoxon signed-rank test to evaluate the differences between treatments.
Each well of a 96-well plate was filled with 150 μL of T. vaginalis suspension in Diamond's growth media (10^4 trichomonads). […] Cultures were visually assessed for survival, defined by observation of motility, through a 100× inverted microscope.

[3] = Phase 3 study: treatment-emergent adverse events (safety population); type: in vivo, human; conditions: 2 grams, safety population (N = 74), TEAEs in primary phase
Protocol: Safety analyses, including the evaluation of adverse events, physical examinations, pelvic examinations, collection of vital signs (blood pressure, temperature, and pulse), and clinical laboratory assessments (serum chemistry, hematology, and urinalysis) was conducted at all study visits. Adverse event information was also collected on the phone call between study V2 and V3.

[4] = Phase I study of SYM-1219 4 grams or 6 grams: secnidazole plasma concentrations; type: in vivo, human
Protocol: Additionally, a Phase I, randomized, placebo-controlled, single-blind, two-group study, which assessed the safety, tolerability, and PK of single oral doses of SYM-1219 granules containing either 4 grams or 6 grams of secnidazole administered in approximately 8 ounces of applesauce to 16 healthy male and female subjects, was conducted to determine the supratherapeutic dose for a potential Thorough QT (“TQT”) study. Subjects were randomized 3:1, such that a total of 12 subjects received secnidazole and 4 subjects received placebo. 3 male and 3 female subjects were treated at each secnidazole dose level (i.e., 4 grams or 6 grams). Blood samples for PK assessments were collected at the following timepoints: 30 minutes prior to dosing and 3 hours, 6 hours, 8 hours and 24 hours post dose. Plasma concentrations were summarized by timepoint using descriptive statistics; noncompartmental PK parameters were not calculated.
Eligible subject were admitted to the clinical site on Day −1 and were discharged following a safety evaluation on Day 2; the in-house period was approximately 2 days. Randomization occurred after the assessments of Day −1 determined that subjects remained eligible for the study. All subject were asked to return on Day 7+/2 days for a final study visit. The maximum study duration was approximately 4 weeks to 5 weeks (including the study screening period).
Group A received a single oral dose of SYM-1219 microgranules, containing 4 grams of secnidazole (N=6) (2 packets of SYM-1219 microgranules, 2 grams of secnidazole/packet), or a placebo (N=2) (2 packets of placebo) in approximately 8 oz. of applesauce. […]
Blood samples for PK analysis were collected: 30 minutes prior to dosing and 3 hours, 6 hours, 8 hours and 24 hours postdose. […] Plasma secnidazole concentrations were determined by Celerion, Inc., using validated analytical procedures. […]

[5] = Thorough QT (TQT) study: secnidazole pharmacokinetics by gender; type: in vivo, human
Protocol: A TQT study was also conducted. […] A total of 50 subjects (29 males and 21 females) were included in the PK population. Noncompartmental PK parameters for these subjects are summarized by gender in Table 15 below.

[6] = men, published studies; cited from earlier work
[7] = 100 clinical T. vaginalis isolates
[8] = 100 clinical T. vaginalis isolates, listed as secnidazole

COc1c(N2C[C@@H]3CCCN[C@@H]3C2)c(F)cc2c(=O)c(C(=O)O)cn(C3CC3)c12 [Moxifloxacin]
Overall incidence rate of TEAEs [1]: 4.3%

Cc1ncc([N+](=O)[O-])n1CC(C)O (stereo not drawn) [Secnidazole, 1-(2-hydroxypropyl)-2-methyl-5-nitromidazole]
In vitro efficacy in comparison with metronidazole [2, 7]: superior efficacy in vitro | Isolates demonstrating moderate- or high-level resistance [2, 7]: none of the isolates | Isolates with a lower MLC for secnidazole than for metronidazole [2, 7]: 96% | Prevalence of low-level resistance (aerobic MLC 50 μg/ml to 100 μg/ml) [2, 7]: Four | MLC, mean (±SD) among all isolates [2, 7]: Mean: 5.9 μg/mL | MLC, median [2, 7]: Median: 1.6 μg/mL | MLC, mean (±SD) among all isolates [2, 8]: 5.9 ± 13.2 µg/mL and 5.9 µg/mL | MLC, median [2, 8]: 1.6 µg/mL (≈ 8.64 µM) | Response of control isolates with established high-level resistance to metronidazole ([2]; control isolates): responded to significantly lower levels of secnidazole | MLC in the one isolate with a higher MLC for secnidazole than for metronidazole ([2]; single clinical isolate): 3.1 µg/mL | Abdominal pain: Events n [3]: 1 | Abdominal pain: Patients n (%) [3]: 1 (1.4%) | Any Adverse Event, Overall: Events n [3]: 13 | Any Adverse Event, Overall: Patients n (%) [3]: 11 (14.9%) | Back pain: Events n [3]: 0 | Back pain: Patients n (%) [3]: 0% | Diarrhea: Events n [3]: 1 | Diarrhea: Patients n (%) [3]: 1 (1.4%) | Dysmenorrhoea: Events n [3]: 0 | Dysmenorrhoea: Patients n (%) [3]: 0% | Gastrointestinal disorders, Overall: Events n [3]: 5 | Gastrointestinal disorders, Overall: Patients n (%) [3]: 4 (5.4%) | General disorders and administration site conditions, Overall: Events n [3]: 0 | General disorders and administration site conditions, Overall: Patients n (%) [3]: 0% | Headache: Events n [3]: 1 | Headache: Patients n (%) [3]: 1 (1.4%) | Infections and infestations, Overall: Events n [3]: 3 | Infections and infestations, Overall: Patients n (%) [3]: 3 (4.1%) | Menstruation irregular: Events n [3]: 0 | Menstruation irregular: Patients n (%) [3]: 0% | Musculoskeletal and connective tissue disorders, Overall: Events n [3]: 1 | Musculoskeletal and connective tissue disorders, Overall: Patients n (%) [3]: 1 (1.4%) | Myalgia: Events n [3]: 1 | Myalgia: Patients n (%) [3]: 1 (1.4%) | Nausea: Events n [3]: 2 | Nausea: Patients n (%) [3]: 2 (2.7%) | Nervous system disorders, Overall: Events n [3]: 1 | Nervous system disorders, Overall: Patients n (%) [3]: 1 (1.4%) | Productive cough: Events n [3]: 1 | Productive cough: Patients n (%) [3]: 1 (1.4%) | Pruritus: Events n [3]: 0 | Pruritus: Patients n (%) [3]: 0% | Reproductive system and breast disorders, Overall: Events n [3]: 1 | Reproductive system and breast disorders, Overall: Patients n (%) [3]: 1 (1.4%) | Respiratory, thoracic and mediastinal disorders, Overall: Events n [3]: 2 | Respiratory, thoracic and mediastinal disorders, Overall: Patients n (%) [3]: 2 (2.7%) | Skin and subcutaneous tissue disorders, Overall: Events n [3]: 0 | Skin and subcutaneous tissue disorders, Overall: Patients n (%) [3]: 0% | Thirst: Events n [3]: 0 | Thirst: Patients n (%) [3]: 0% | Trichomoniasis (adverse event): Events n [3]: 0 | Trichomoniasis (adverse event): Patients n (%) [3]: 0% | Upper-airway cough syndrome: Events n [3]: 1 | Upper-airway cough syndrome: Patients n (%) [3]: 1 (1.4%) | Vomiting: Events n [3]: 1 | Vomiting: Patients n (%) [3]: 1 (1.4%) | Vulvovaginal candidiasis: Events n [3]: 2 | Vulvovaginal candidiasis: Patients n (%) [3]: 2 (2.7%) | Vulvovaginal mycotic infection: Events n [3]: 1 | Vulvovaginal mycotic infection: Patients n (%) [3]: 1 (1.4%) | Vulvovaginal pruritus: Events n [3]: 1 | Vulvovaginal pruritus: Patients n (%) [3]: 1 (1.4%) | Plasma concentrations and exposures in males versus females ([4]; 4 and 6 grams): slightly lower | Variability in plasma concentrations ([4]; across the limited sampling times, 4 and 6 grams): 4% to 29% | Dose proportionality of plasma concentrations ([4]; from 4 grams to 6 grams of secnidazole): essentially dose-proportional | Plasma concentrations and exposures in males versus females ([5]; 2 and 6 grams): slightly lower | Secnidazole exposure over the 24-hour sampling period, fold lower in male vs female subjects ([5]; Phase I study concentration-by-time data or TQT study mean PK parameters): approximately 1.5 fold | Variability in plasma concentrations ([5]; across the sampling times, 2 and 6 grams): 21% to 57% | Dose proportionality of plasma concentrations ([5]; from 2 grams to 6 grams of secnidazole): essentially dose-proportional | Time postdose up to which concentrations greater than the median MLC are maintained ([5]; men): at least 96 hours | Mean dose-normalized (to 2 grams) concentrations at 96 hours [6]: approximately 2 μg/mL
